Assay results taken from the NIST ThermoML archive (doi:10.1016/j.fluid.2014.05.032).

Assay: xn = mol fraction of the nth substance listed
Details: Liquid, Constant-volume piezometry

CCO [ethanol] + O
Details	mass density [kg/m3]
292.95 K, 2450 kPa, x1 = 0.073	974.2
292.95 K, 11320 kPa, x1 = 0.073	977.6
292.95 K, 21120 kPa, x1 = 0.073	981.2
292.95 K, 30930 kPa, x1 = 0.073	985
292.95 K, 39230 kPa, x1 = 0.073	988
297.05 K, 2490 kPa, x1 = 0.0163	990.8
297.05 K, 11280 kPa, x1 = 0.0163	993.5
297.05 K, 21070 kPa, x1 = 0.0163	997.5
297.05 K, 30810 kPa, x1 = 0.0163	1003.2
297.05 K, 39170 kPa, x1 = 0.0163	1006.1
298.15 K, 2560 kPa, x1 = 0.0946	965.8
298.15 K, 10120 kPa, x1 = 0.0946	968.6
298.15 K, 20060 kPa, x1 = 0.0946	972.4
298.15 K, 29980 kPa, x1 = 0.0946	976.1
298.15 K, 40030 kPa, x1 = 0.0946	979.8
298.35 K, 2590 kPa, x1 = 0.0343	984.1
298.35 K, 11280 kPa, x1 = 0.0343	987.9
298.35 K, 21300 kPa, x1 = 0.0343	991.9
298.35 K, 31040 kPa, x1 = 0.0343	995.7
298.35 K, 39150 kPa, x1 = 0.0343	998.6
323.15 K, 2570 kPa, x1 = 0.0163	980.6
323.15 K, 2610 kPa, x1 = 0.073	959.3
323.15 K, 2730 kPa, x1 = 0.0946	951.3
323.15 K, 10940 kPa, x1 = 0.073	962.8
323.15 K, 11140 kPa, x1 = 0.0946	954.9
323.15 K, 11390 kPa, x1 = 0.0163	984.4
323.15 K, 20710 kPa, x1 = 0.0946	958.8
323.15 K, 20790 kPa, x1 = 0.073	966.7
323.15 K, 21080 kPa, x1 = 0.0163	988.4
323.15 K, 30360 kPa, x1 = 0.073	970.6
323.15 K, 30890 kPa, x1 = 0.0163	992.3
323.15 K, 32400 kPa, x1 = 0.0946	963.3
323.15 K, 38480 kPa, x1 = 0.0163	995.2
323.15 K, 38600 kPa, x1 = 0.073	973.6
323.15 K, 39810 kPa, x1 = 0.0946	966.2
323.65 K, 2610 kPa, x1 = 0.0343	973.6
323.65 K, 11320 kPa, x1 = 0.0343	977.4
323.65 K, 21200 kPa, x1 = 0.0343	981.4
323.65 K, 30930 kPa, x1 = 0.0343	985.2
323.65 K, 39010 kPa, x1 = 0.0343	988.2
348.15 K, 2730 kPa, x1 = 0.0946	933.7
348.15 K, 3220 kPa, x1 = 0.0163	967.1
348.15 K, 3260 kPa, x1 = 0.0343	959.9
348.15 K, 3330 kPa, x1 = 0.073	943
348.15 K, 10980 kPa, x1 = 0.0163	970.6
348.15 K, 11060 kPa, x1 = 0.073	946.6
348.15 K, 11390 kPa, x1 = 0.0946	937.4
348.15 K, 11590 kPa, x1 = 0.0343	963.5
348.15 K, 20750 kPa, x1 = 0.0163	974.7
348.15 K, 20870 kPa, x1 = 0.073	950.8
348.15 K, 20870 kPa, x1 = 0.0946	941.6
348.15 K, 21160 kPa, x1 = 0.0343	967.5
348.15 K, 29500 kPa, x1 = 0.0163	978.3
348.15 K, 29730 kPa, x1 = 0.0946	945.4
348.15 K, 30400 kPa, x1 = 0.073	955
348.15 K, 30850 kPa, x1 = 0.0343	971.3
348.15 K, 37790 kPa, x1 = 0.0946	948.7
348.15 K, 39600 kPa, x1 = 0.073	958.9
348.15 K, 39860 kPa, x1 = 0.0343	974.7
348.15 K, 39910 kPa, x1 = 0.0163	982.3
373.15 K, 3330 kPa, x1 = 0.0946	908.6
373.15 K, 3370 kPa, x1 = 0.0163	950.2
373.15 K, 3390 kPa, x1 = 0.0343	942.1
373.15 K, 3510 kPa, x1 = 0.073	923.9
373.15 K, 11320 kPa, x1 = 0.0163	953.8
373.15 K, 11320 kPa, x1 = 0.073	927.7
373.15 K, 11390 kPa, x1 = 0.0946	912.8
373.15 K, 11470 kPa, x1 = 0.0343	945.9
373.15 K, 21080 kPa, x1 = 0.073	932.5
373.15 K, 21120 kPa, x1 = 0.0343	950.3
373.15 K, 21160 kPa, x1 = 0.0163	958.3
373.15 K, 21200 kPa, x1 = 0.0946	917.7
373.15 K, 30520 kPa, x1 = 0.0343	954.5
373.15 K, 30600 kPa, x1 = 0.0163	962.5
373.15 K, 30670 kPa, x1 = 0.073	937
373.15 K, 30850 kPa, x1 = 0.0946	922.3
373.15 K, 35700 kPa, x1 = 0.0163	964.6
373.15 K, 37230 kPa, x1 = 0.073	939.9
373.15 K, 39000 kPa, x1 = 0.0343	957.9
373.15 K, 39410 kPa, x1 = 0.0946	927.3
398.15 K, 3510 kPa, x1 = 0.0946	885.8
398.15 K, 3550 kPa, x1 = 0.0343	921.6
398.15 K, 3710 kPa, x1 = 0.0163	930.3
398.15 K, 3710 kPa, x1 = 0.073	901.9
398.15 K, 11430 kPa, x1 = 0.0946	890.4
398.15 K, 11510 kPa, x1 = 0.073	906.2
398.15 K, 11630 kPa, x1 = 0.0163	934.4
398.15 K, 11730 kPa, x1 = 0.0343	925.8
398.15 K, 21160 kPa, x1 = 0.073	911.4
398.15 K, 21200 kPa, x1 = 0.0946	896
398.15 K, 21360 kPa, x1 = 0.0163	939.3
398.15 K, 21530 kPa, x1 = 0.0343	930.7
398.15 K, 30790 kPa, x1 = 0.0163	943.7
398.15 K, 30790 kPa, x1 = 0.073	916.3
398.15 K, 30850 kPa, x1 = 0.0946	901.1
398.15 K, 30930 kPa, x1 = 0.0343	935.2
398.15 K, 37300 kPa, x1 = 0.0343	938.3
398.15 K, 39500 kPa, x1 = 0.073	920.7
398.15 K, 39610 kPa, x1 = 0.0946	905.3
398.15 K, 39890 kPa, x1 = 0.0163	948
423.15 K, 2680 kPa, x1 = 0.0163	906.7
423.15 K, 2680 kPa, x1 = 0.0343	897.3
423.15 K, 2750 kPa, x1 = 0.0946	860.1
423.15 K, 2760 kPa, x1 = 0.073	875.9
423.15 K, 10050 kPa, x1 = 0.0946	863.9
423.15 K, 10170 kPa, x1 = 0.0163	911
423.15 K, 10240 kPa, x1 = 0.0343	901.8
423.15 K, 10710 kPa, x1 = 0.073	881.1
423.15 K, 20110 kPa, x1 = 0.073	887.1
423.15 K, 20200 kPa, x1 = 0.0946	869.5
423.15 K, 20970 kPa, x1 = 0.0163	917
423.15 K, 21070 kPa, x1 = 0.0343	908.1
423.15 K, 30100 kPa, x1 = 0.0946	875.5
423.15 K, 30490 kPa, x1 = 0.073	893
423.15 K, 30570 kPa, x1 = 0.0163	922.4
423.15 K, 30640 kPa, x1 = 0.0343	913.4
423.15 K, 39560 kPa, x1 = 0.0163	927.2
423.15 K, 39680 kPa, x1 = 0.0343	918.2
423.15 K, 39860 kPa, x1 = 0.0946	882.2
423.15 K, 40110 kPa, x1 = 0.073	898.6
448.15 K, 3860 kPa, x1 = 0.0946	831.7
448.15 K, 3960 kPa, x1 = 0.0163	882.3
448.15 K, 4000 kPa, x1 = 0.073	849.3
448.15 K, 4080 kPa, x1 = 0.0343	872.1
448.15 K, 11550 kPa, x1 = 0.0946	837.9
448.15 K, 11920 kPa, x1 = 0.0163	887.5
448.15 K, 11960 kPa, x1 = 0.0343	877.7
448.15 K, 12160 kPa, x1 = 0.073	855.6
448.15 K, 21530 kPa, x1 = 0.0163	893.7
448.15 K, 21690 kPa, x1 = 0.073	862.7
448.15 K, 21690 kPa, x1 = 0.0946	845.8
448.15 K, 22180 kPa, x1 = 0.0343	884.2
448.15 K, 30990 kPa, x1 = 0.0946	852.6
448.15 K, 31010 kPa, x1 = 0.0343	889.8
448.15 K, 31050 kPa, x1 = 0.0163	899.4
448.15 K, 31170 kPa, x1 = 0.073	869.2
448.15 K, 37210 kPa, x1 = 0.073	873
448.15 K, 38340 kPa, x1 = 0.0163	903.5
448.15 K, 40060 kPa, x1 = 0.0343	894.8
448.15 K, 40140 kPa, x1 = 0.0946	858.6
